Source: PubChem BioAssay AID1336 (NMMLSC, 2008)

Molecular target: Ras-related protein Rab-7a (dog), GTP binding
Experiment: blockers of fluorescent GTP binding to Rab7 – biochemical, wildtype, multiplex bead flow cytometry, dose response (AID 1336)
Details: bead-based flow cytometry

First: COC(=O)c1cccnc1SCCc1ccccc1
Second: O=C(O)c1ccccc1NCCc1ccc(Cl)cc1
The EC50 of the first is 42-fold higher: 14200 nM for the first, 339 nM for the second.

Compared with Cc1sc(-n2c(C)cc(C=C3C(=O)NC(=O)NC3=O)c2C)c(C#N)c1C, N#Cc1c(-c2ccccc2)nc(SCC(=O)Nc2ccccc2)[nH]c1=O is 4.5-fold lower in EC50: 28900 nM for the first, 6420 nM for the second.

Going from Cc1cc(C(=O)Oc2ccccc2C(=O)O)c(C)o1 to Cc1cc(C(=O)O)sc1CNCc1ccccc1Cl, the EC50 falls from 810 nM to 423 nM (1.9-fold).

O=C(O)c1ccccc1Sc1ncnc2sc3c(c12)CCC3 and Cc1nn(Cc2ccccc2)c(Cl)c1C(=O)O are within 1.5-fold of each other in EC50: 2620 nM for the first, 3540 nM for the second.

O=C1CN=C(c2ccccc2)c2cc(Br)ccc2N1Cc1cc(=O)n2ccccc2n1 and O=C(O)/C=C/c1cn(Cc2ccccc2)nc1-c1cccs1 are within 1.5-fold of each other in EC50: 2700 nM for the first, 2350 nM for the second.

First: CCOc1ccc(/C=C2\SC(N3CCc4ccccc4C3)=NC2=O)cc1
Second: CC(C)C(NCc1c(Cl)cccc1Cl)C(=O)O (configuration not stated)
The EC50 of the first is 5.2-fold higher: 11500 nM for the first, 2230 nM for the second.
